{"source": "patent US20250034161A1", "about": "“SPIROCYCLIC COMPOUND AS KRAS-G12C INHIBITOR” (Shanghai Euregen Biopharma Co., Ltd., priority 2020, published 2025)", "key": {"[1]": {"assay": "Whole blood stability assay, rat whole blood", "assay_type": "in vitro ADME", "conditions": "37° C.", "method": "• 1. Test purpose: to determine the whole blood stability of the compounds by monitoring the clearance rate of the parent compound after incubation of some of the example compounds of the invention with dog and rat whole blood. • 2. […] Test method:\nThen, the stock solution of the test compound was diluted to 1 mmol/L and 0.2 mmol/L with 70% acetonitrile aqueous solution, respectively, as working solution.\nThe working solution was added to the whole blood. The concentration of each test compound was 5 μmol/L. 90 μL was taken and then mixed evenly with 90 μL of water. Then 600 μL of acetonitrile termination solution containing propranolol as internal standard was added. Incubated at 37° C. in a water bath and shook gently. At 30, 60, 120 and 240 minutes, 90 μL of each mixture was placed on a clean 96-well plate prefilled with 90 μL of water, mixed well, and then 600 μL of acetonitrile termination solution containing propranolol as internal standard was added and centrifuged at 5000 g for 15 min. 80 μL of the supernatant was taken and placed in a 96-well plate preloaded with 160 μL of ultrapure water, then analyzed by LC-MS/MS."}, "CYP1A2": {"biological_target": "T1, CYP1A2 (Homo sapiens, UniProt P05177)", "T1 sequence (P05177 1-516)": "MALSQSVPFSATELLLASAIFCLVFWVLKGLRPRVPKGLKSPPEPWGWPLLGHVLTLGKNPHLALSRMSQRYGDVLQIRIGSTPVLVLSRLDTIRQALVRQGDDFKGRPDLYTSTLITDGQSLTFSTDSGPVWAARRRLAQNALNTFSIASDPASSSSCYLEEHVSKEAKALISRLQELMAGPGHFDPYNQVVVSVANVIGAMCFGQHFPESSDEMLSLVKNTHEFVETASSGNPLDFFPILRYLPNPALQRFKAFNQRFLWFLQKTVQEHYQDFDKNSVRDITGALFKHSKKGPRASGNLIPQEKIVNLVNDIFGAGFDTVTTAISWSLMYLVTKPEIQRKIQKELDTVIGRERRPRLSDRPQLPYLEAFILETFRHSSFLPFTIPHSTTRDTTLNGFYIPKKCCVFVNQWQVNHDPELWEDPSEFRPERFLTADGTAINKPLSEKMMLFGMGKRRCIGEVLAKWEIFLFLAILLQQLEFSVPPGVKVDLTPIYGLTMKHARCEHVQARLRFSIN", "assay": "CYP inhibition test, human liver microsomes, CYP1A2", "method": "• 1. Test purpose: to evaluate the inhibitory ability of some of the example compounds of the present invention against CYP1A2, 2B6, 2C8, 2C9, 2C19, 2D6 and 3A4 via human liver microsomes. • 2. […] Test method:\n• 1. K/Mg buffer: the components were 0.1 mol/L potassium phosphate and 5 mmol/L magnesium chloride with pH 7.4±0.1, preheated. • 2. Solution of the test compound: the test compound was dissolved in dimethyl sulfoxide to prepare a stock solution of 10 mmol/L. 8 μL of 10 mmol/L stock solution was transferred to a 96-well plate containing 12 μL of acetonitrile as the highest concentration point, at 3-fold dilution, for 8 concentrations. • 3. NADPH solution: 66.7 mg of NADPH was dissolved in 10 mL of 0.1 mol/L K/Mg buffer to obtain 8 mmol/L NADPH solution with pH 7.4. • 4. Human liver microsomal stock solution: human liver microsomes were dissolved in 0.1 mol/L K/Mg buffer to obtain 20 mg/mL stock solution. • 5. Human liver microsomal working solution: 10 μL of 20 mg/mL human liver microsomal stock solution was taken and added into 990 μL of 0.1 mol/L K/Mg buffer to prepare 0.2 mg/mL human liver microsomal solution. • 6. […]"}, "hERG potassium channel": {"biological_target": "hERG potassium channel (Homo sapiens, UniProt Q12809)", "sequence (Q12809 whole entry)": "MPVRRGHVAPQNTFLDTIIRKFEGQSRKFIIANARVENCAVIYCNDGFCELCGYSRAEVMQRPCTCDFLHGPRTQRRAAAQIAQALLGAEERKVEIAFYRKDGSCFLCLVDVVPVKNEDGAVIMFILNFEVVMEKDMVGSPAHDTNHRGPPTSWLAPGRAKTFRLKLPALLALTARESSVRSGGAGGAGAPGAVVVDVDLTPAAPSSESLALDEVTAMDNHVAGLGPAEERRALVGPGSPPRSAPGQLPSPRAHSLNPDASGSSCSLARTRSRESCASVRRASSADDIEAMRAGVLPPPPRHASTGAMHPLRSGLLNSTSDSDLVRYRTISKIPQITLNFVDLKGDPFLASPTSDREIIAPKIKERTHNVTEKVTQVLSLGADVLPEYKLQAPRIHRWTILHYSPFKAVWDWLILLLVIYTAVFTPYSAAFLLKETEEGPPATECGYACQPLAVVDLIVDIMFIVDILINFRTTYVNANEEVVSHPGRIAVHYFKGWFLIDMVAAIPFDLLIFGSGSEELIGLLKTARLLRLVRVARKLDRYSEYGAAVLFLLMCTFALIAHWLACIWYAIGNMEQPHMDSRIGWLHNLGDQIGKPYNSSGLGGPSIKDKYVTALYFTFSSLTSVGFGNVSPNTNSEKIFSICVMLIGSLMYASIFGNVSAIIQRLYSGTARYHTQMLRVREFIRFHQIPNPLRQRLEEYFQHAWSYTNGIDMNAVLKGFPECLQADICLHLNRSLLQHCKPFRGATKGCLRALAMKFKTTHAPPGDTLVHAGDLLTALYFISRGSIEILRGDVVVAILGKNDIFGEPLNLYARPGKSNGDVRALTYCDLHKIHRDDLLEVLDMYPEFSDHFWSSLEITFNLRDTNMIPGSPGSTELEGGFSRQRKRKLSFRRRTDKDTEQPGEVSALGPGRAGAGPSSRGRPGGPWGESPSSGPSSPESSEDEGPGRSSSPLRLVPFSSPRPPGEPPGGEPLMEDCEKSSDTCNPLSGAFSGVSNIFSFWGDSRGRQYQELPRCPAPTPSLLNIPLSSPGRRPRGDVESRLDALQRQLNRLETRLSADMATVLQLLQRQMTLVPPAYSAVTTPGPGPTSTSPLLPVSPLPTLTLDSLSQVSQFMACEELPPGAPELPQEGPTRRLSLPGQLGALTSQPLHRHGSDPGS", "assay": "hERG experiment, manual membrane clamp on HEK293 cells", "from_the_text": "hERG Experiment • 1. Test purpose: to test the inhibition of hERG current on HEK293 cells stably transfected with hERG potassium channel by manual membrane clamp; • 2. […] Manual membrane clamp system amplifier was purchased from Molecular Devices (Model No. MultiClamp700B); Manual membrane clamp system digital-to-analog converter was purchased from Molecular Devices (Model No. Axon Digidata1550B); Rapid perfusion system was purchased from ALA Scientific Ins. […] Experimental methods:\nThe cells were resuspended with culture medium and stored in a centrifuge tube, the supernatant was discarded after centrifugation, then the cells were resuspended with extracellular liquid for later use, and stored at 2-8° C.\nThe whole-cell membrane clamp technique was applied to record hERG currents. The cell suspension was added into small Petri dishes and placed on an inverted microscope stage. After cells were adhered, they were perfused with extracellular fluid at a recommended flow rate of 1-2 mL/min. The glass microelectrode was drawn in two steps by a micropipette puller, and its resistance value in water was 2-5 MΩ after filling with electrode internal fluid.\nAfter the whole-cell recording mode was established, the clamp potential was maintained at −80 mV. […]\nStimulus release and signal acquisition were performed on PatchMaster software. […] Data was expressed as mean and standard deviation. […]"}}, "data": [{"smiles": "C=CC(=O)N1CCN(c2nc(=O)n(-c3c(C)ccnc3C(C)C)c3nc(-c4c(O)cccc4F)c(F)cc23)[C@@H](C)C1", "note": "[AMG510]", "values": [{"measurement": "half-life at 5 μmol/L", "setting": "[1]", "value": 1.85, "unit": "h"}, {"measurement": "IC50", "setting": "CYP1A2", "value": "> 10", "unit": "µM"}, {"measurement": "IC50", "setting": "hERG potassium channel", "value": "> 30", "unit": "µM"}]}, {"smiles": "C=C(F)C(=O)N1CCN(c2nc(OC[C@@H]3CCCN3C)nc3c2CCN(c2cccc4cccc(Cl)c24)C3)C[C@@H]1CC#N", "note": "[MRTX849]", "values": [{"measurement": "half-life at 5 μmol/L", "setting": "[1]", "value": 13.1, "unit": "h"}, {"measurement": "IC50", "setting": "CYP1A2", "value": "> 10", "unit": "µM"}, {"measurement": "IC50", "setting": "hERG potassium channel", "value": 0.99, "unit": "µM"}]}]}
